According to US20100035911A1, “DRUG COMBINATIONS TO TREAT HYPERPROLIFERATIVE DISORDERS” (priority 2006, published 2010):

Experiments:
[1] = tested on: human neuroblastoma cell line CHLA-136; test: Event-free survival of mice bearing CHLA-136 subcutaneous xenografts; type: in vivo, nu/nu mice; conditions: CHLA-136 xenograft; single agents at the drug doses employed
Excerpt: Treating cancer in xenografts with fenretinide+ABT-751. Administration of fenretinide and ABT-751 in combination to nu/nu mice bearing subcutaneous xenografts of multi-drug resistant neuroblastoma xenografts (tumor cell lines are described in: Keshelava N, Zuo J J, Chen P, Waidyaratine S N, Luna M C, Gomer C J, Triche T J, Reynolds C P: Loss of p53 function confers high-level multi-drug resistance in neuroblastoma cell lines. Cancer Research 61:6185-6193, 2001, and xenograft methods are described in: Reynolds, C P, Sun B C, DeClerck Y A, Moats R A: Assessing growth and response to therapy in murine tumor models. Methods in Molecular Medicine Chemosensitivity Vol 2 ed. Blumenthal R D, Totowa: Humana Press pp 335-350, 2005.
Mice were treated daily with ABT-751, and twice daily with fenretinide for 5 days/week. Fenretinide was given as a powder LXS formulation mixed with water (Maurer B J, Kalous O, Yesair D W, Wu X, Vratilova J, Maldonado V, Khankaldyyan V, Frgala T, Sun B C, McKee R T, Burgess S W, Shaw W A, Reynolds C P. Improved oral delivery of N-(4-hydroxyphenyl)retinamide with novel LYM-X-SORB™ organized lipid complex in mice. Clinical Cancer Research (In Press, 2007)). Both drugs were given to mice by gavage.

[2] = tested on: human ovarian cancer cell line, CRL-1572; test: Survival of mice bearing CRL-1572 ovarian cancer subcutaneous xenografts; type: in vivo; conditions: CRL-1572 xenografts; single agents at the drug doses employed
Excerpt: Fenretinide combined with taxanes is active against ovarian cancer Xenografts. Based on the surprising and favorable results observed when combining ABT-751 with fenretinide with neuroblastoma xenografts and vincristine with fenretinide for a lymphoma xenograft, we explored other types of cancer as xenografts and we also sought to test taxanes for a possible increase in activity when combined with fenretinide.

[3] = tested on: human Ramos Burkitts lymphoma cell line; test: Survival of mice bearing Ramos lymphoma subcutaneous xenografts; type: in vivo; conditions: single agents at the drug doses employed
Procedure: Treating lymphoma xenografts with fenretinide combined with vincristine. […] Testing of fenretinide+vincristine was carried out as described for fenretinide+ABT-751 in Example 1, except that vincristine was given by i.p. injection twice a week during the 5 day administration of fenretinide.

[4] = cited from earlier work

Compound | response of xenograft to single agent [1] | response of tumor cell line to single agent [2] | response of tumor cell line to single agent [3] | solubility in aqueous solution [4]
COc1ccc(S(=O)(=O)Nc2cccnc2Nc2ccc(O)cc2)cc1 [ABT-751] | minimally response | – | – | –
CC(=O)O[C@H]1C(=O)[C@@]2(C)[C@H]([C@H](OC(=O)c3ccccc3)[C@]3(O)C[C@H](OC(=O)[C@H](O)[C@@H](NC(=O)c4ccccc4)c4ccccc4)C(C)=C1C3(C)C)[C@]1(OC(C)=O)CO[C@@H]1C[C@@H]2O [paclitaxel] | – | minimally responsive | – | –
CC1=C(/C=C/C(C)=C/C=C/C(C)=C/C(=O)Nc2ccc(O)cc2)C(C)(C)CCC1 [fenretinide, all-trans-N-(4-hydroxyphenyl)retinamide] | minimally response | minimally responsive | minimally responsive | minimally soluble
vincristine | – | – | minimally responsive | –
